Measurements taken from US20220378761A1, “PAPD5 Inhibition As A Treatment For Dyskeratosis Congenita, Aplastic Anemia And Myelodysplastic Syndrome Caused By Reduced Telomerase RNA Levels” (The Regents of The University of Colorado, A Body Corporate, priority 2019, published 2022).

Key:
cell culture models = conditions: cited from earlier work
DKC1_A353V hESCs [1] = assay: Telomere length by telomere restriction fragment analysis in DKC1_A353V hESCs; format: cell-based, Homo sapiens; conditions: sustained treatment up to 3 months
Method: Telomere length analysis: Telomere length analysis were performed by Telomere Repeat Fragment (TRF) technique. Briefly, DNA was extracted using tail lysis buffer (10 mM Tris-HCl, pH 8.0, 100 mM NaCl, 10 mM EDTA, 0.5% SDS supplemented with 400 μg/ml Proteinase K) at 55° C. overnight. 10 μg of DNA was digested with Rsa1 and Hinf1 restriction enzymes (New England Biolabs, Ispwich, Mass.) overnight and 2.5 μg of product was resolved in a 0.75% agarose gel for 16 hr at 85V in TBE buffer. The gel was incubated with denaturing buffer (1.5M NaCl and 0.5M NaOH) for 45 min followed by neutralizing buffer (1.5M NaCl, 1M Tris-HCl at pH 7.4) for 1 hr. DNA was transferred to a nitrocellulose membrane by capillary action for 2 days in 10× saline-sodium citrate (3M NaCl, 0.3M sodium citrate dehydrate at pH 7.0). After cross-linking, the membrane was hybridized with a ^32P-labelled probe (CCCTAA) and exposed to Carestream BioMax MT film. Mean telomere length was analyzed using TeloTool with the corrected and nonlinear fit order 1 ladder fit options.

TERC = TERC localization to cajal bodies by fluorescent microscopy (coilin IF, TERC FISH) in HeLa cells; format: cell-based, Homo sapiens; conditions: RG7834 for 2 days
Method: (§1) Th present inventors have previously shown that in DKC1- or PARN-depleted cells, TERC accumulates in cytoplasmic puncta called “cyTER bodies,” instead of its normal localization to cajal bodies in the nucleus. To investigate whether RG7834 treatment rescued TERC localization to cajal bodies in the nucleus, DKC1- or PARN-depleted cells were treated with RG7834 for 2 days. […] Upon treatment with RG7834, —38% of cells had TERC localized to cajal bodies, which is consistent with the 1.5× increase in TERC levels in these cells. RG7834 treatment also rescued TERC localization to cajal bodies in PARN-depleted cells. In PARN knockdown cells, ˜34% of cells had TERC in cajal bodies, with TERC also mostly being localized to cyTER bodies in these cells. However, upon RG7834 treatment, ˜85% of cells had TERC localized to cajal bodies.
Fluorescent microscopy for Cajal bodies and TERC: Cells were seeded directly on glass coverslips (ethanol washed) in 6-well plates and transfected and drug treated as previously described. Coverslips were washed once with 1× DPBS and fixed with 4% formaldehyde in 1× DPBS at room temperature for 10 minutes. Cells were permeabilized in 0.2% Triton 1× DPBS for 10 minutes, and then incubated with rabbit anti-Coilin (Santa Cruz) for 1 hour at room temperature. […]

DKC1_A353V hESCs [2] = assay: Colony forming culture assay of definitive hematopoietic progenitors; format: cell-based, Homo sapiens; conditions: day 28 of differentiation, DKC1_A353V cells, different concentrations
Description: Because bone marrow failure is the leading cause of death in DC, the present inventors wanted to analyze the consequences of RG7834 treatment in DKC1_A353V cells during definitive hematopoietic differentiation. There are no animal models that faithfully recapitulate the hematopoietic defects observed in patients harboring pathogenic mutations in DKC1 or PARN; therefore, the present inventors followed established protocols of hESC differentiation into hematopoietic lineages. These protocols recapitulate, in vitro, the major aspects of blood development in vivo, a strategy shown to accurately model key aspects of DC. A schematic of the protocol is depicted in FIG. 6. […] These observations provide compelling evidence that chemical inhibition of PAPD5, in addition to rescuing telomerase function, is sufficient to increase definitive, multilineage, hematopoietic potential in DKC1_A353V mutants.
Colony forming culture assays: Colony assays were performed using MethoCult H4034 Optimum (StemCell Technologies, Vancouver, Canada). […] Cells were maintained in 5% CO2 and 5% O2 incubator for 8 days and then placed into 1 ml of MethoCult in which the colonies forming were measured after 12 days. […]

[3] = cited from earlier work
HeLa cells = assay: Toxicity in RG7834-treated HeLa cells; format: cell-based, Homo sapiens; conditions: duration of the experiments
telomerase = assay: Telomerase activity by telomere repeat amplification (TRAP) in HeLa cells; format: cell-based, Homo sapiens; parameters: dose or concentration left out as unconfirmed; conditions: DKC1- and PARN-depleted HeLa cells, RG7834 or DMSO (FIG. 1D)
Method: as §1
Detection of telomerase activity: Telomerase activity was assessed by Telomere Repeat Amplification Protocol (TRAP). Briefly, cells were lysed in NP-40 buffer at 4° C. for 20 min and centrifuged at 13,000 rpm for 10 min. Telomere extension reactions were performed using 2, 0.5, and 0.125 μg of protein and following products were amplified by PCR. Adenosine triphosphate, labeled on the gamma phosphate group with 32P (Perkin-Elmer, USA) was used for labelling of PCR products. […]

COCCCOc1cc2c(cc1OC)-c1cc(=O)c(C(=O)O)cn1[C@H](C(C)C)C2 [RG7834]
toxicity in cell culture models (cell culture models): low toxicity | telomere maintenance (telomere length) (DKC1_A353V hESCs [1]): improved telomere maintenance | cells with TERC localized to cajal bodies (TERC; DKC1 knockdown): ~38% | cells with TERC localized to cajal bodies (TERC; PARN knockdown): ~85% | definitive hematopoietic colony potential (DKC1_A353V hESCs [2]): significantly increased the hematopoietic potential | activity in cell culture against the HPV B infection [3]: highly active | toxicity in RG7834-treated cells (HeLa cells): No cellular toxicity was observed | telomerase activity (telomerase): increase telomerase activity
